Measurements as given in patent US20180244611A1, “Modulators of the Cystic Fibrosis Transmembrane Conductance Regulator Protein and Methods of Use” (AbbVie S.à.r.l., priority 2017, published 2018).

Columns and labels:
[1] = molecular target: T1, F508delCFTR (Homo sapiens, UniProt P13569, DEL508-508); test: Cell Surface Expression-Horse Radish Peroxidase (CSE-HRP) assay, test compound without co-corrector; assay type: cell-based; conditions: for Emax: maximum at any tested concentration, normalized to positive control, without co-corrector; for EC50: test compound without co-corrector;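 for Emax: percent of on-plate 2 µM positive control corrector response over DMSO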
T1 construct: expressed in transfected cells; host or cells: CFBE41o- human lung-derived epithelial cells (CFBE41o-F508delCFTR-HRP), doxycycline-inducible
T1 sequence (P13569 with tags, fused parts or gaps DEL508-508): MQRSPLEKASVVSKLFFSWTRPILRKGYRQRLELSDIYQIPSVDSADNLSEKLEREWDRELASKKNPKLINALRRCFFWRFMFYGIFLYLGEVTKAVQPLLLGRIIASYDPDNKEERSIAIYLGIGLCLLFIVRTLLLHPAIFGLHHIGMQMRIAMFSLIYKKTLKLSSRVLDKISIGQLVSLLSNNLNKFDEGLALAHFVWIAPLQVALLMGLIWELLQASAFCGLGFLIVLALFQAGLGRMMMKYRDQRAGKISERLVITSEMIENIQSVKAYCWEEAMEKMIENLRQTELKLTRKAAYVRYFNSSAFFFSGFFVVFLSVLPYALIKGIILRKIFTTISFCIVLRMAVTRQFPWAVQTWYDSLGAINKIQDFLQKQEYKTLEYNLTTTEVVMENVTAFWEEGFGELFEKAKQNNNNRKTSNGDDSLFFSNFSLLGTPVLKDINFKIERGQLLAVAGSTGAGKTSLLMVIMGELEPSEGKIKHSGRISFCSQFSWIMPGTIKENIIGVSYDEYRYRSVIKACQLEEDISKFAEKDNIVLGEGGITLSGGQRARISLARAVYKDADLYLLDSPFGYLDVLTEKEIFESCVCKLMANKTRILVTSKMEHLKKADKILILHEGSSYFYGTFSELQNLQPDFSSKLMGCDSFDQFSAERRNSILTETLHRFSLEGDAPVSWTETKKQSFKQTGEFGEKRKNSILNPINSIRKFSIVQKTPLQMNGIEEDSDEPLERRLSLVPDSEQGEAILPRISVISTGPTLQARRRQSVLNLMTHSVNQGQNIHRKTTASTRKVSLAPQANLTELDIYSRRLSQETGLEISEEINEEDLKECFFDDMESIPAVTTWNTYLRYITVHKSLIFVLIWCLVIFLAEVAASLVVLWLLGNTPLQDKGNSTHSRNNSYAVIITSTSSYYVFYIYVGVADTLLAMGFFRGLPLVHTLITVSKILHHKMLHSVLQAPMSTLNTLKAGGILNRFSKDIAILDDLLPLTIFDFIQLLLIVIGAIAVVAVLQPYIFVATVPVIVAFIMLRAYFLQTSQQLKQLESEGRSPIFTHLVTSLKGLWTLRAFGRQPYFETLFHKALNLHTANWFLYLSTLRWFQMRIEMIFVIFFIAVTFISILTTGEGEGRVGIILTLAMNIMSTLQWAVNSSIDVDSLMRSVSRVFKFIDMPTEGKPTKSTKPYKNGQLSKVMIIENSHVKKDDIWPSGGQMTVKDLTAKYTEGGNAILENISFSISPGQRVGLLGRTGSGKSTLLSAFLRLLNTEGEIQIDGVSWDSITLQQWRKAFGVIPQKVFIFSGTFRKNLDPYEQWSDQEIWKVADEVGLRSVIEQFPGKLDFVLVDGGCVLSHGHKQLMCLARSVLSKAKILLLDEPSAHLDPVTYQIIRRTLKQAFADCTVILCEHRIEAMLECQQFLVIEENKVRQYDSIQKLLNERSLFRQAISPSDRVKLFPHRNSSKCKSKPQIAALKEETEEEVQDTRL
Method in brief: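 CFBE41o- cells expressing F508delCFTR with HRP in the fourth exofacial loop, induced with 0.5 μg/mL doxycycline for 72 h at 37° C, then exposed to compound alone for 18-24 h at 33° C, 8-point 3-fold series from 20 μM. Surface HRP read by luminol luminescence, normalized to positive corrector control versus DMSO; EC50 from variable-slope sigmoidal fit of three replicate plates.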

[2] = molecular target: T1, F508delCFTR; test: Cell Surface Expression-Horse Radish Peroxidase (CSE-HRP) assay, test compound with co-corrector; assay type: cell-based; conditions: with 2 μM co-corrector; for Maximum % activity (with co-corrector): maximum at any tested concentration, normalized to positive control;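 for Maximum % activity (with co-corrector): percent of 2 µM positive control corrector over DMSO; co-corrector is that same compound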
Method in brief: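 CFBE41o- cells expressing F508delCFTR with HRP in the fourth exofacial loop, induced with 0.5 μg/mL doxycycline for 72 h, then treated 18-24 h at 33° C. with compound (8 points, top 20 μM, 3-fold) plus 2 μM co-corrector. Surface HRP read by luminol luminescence; activity normalised to positive control, EC50 from variable-slope sigmoidal fit.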

COc1ccc(Br)c2c1C(C(=O)NS(=O)(=O)c1cccc3nccn13)CC2 (centres unmarked) [Example I-78, 4-bromo-N-(imidazo[1,2-a]pyridine-5-sulfonyl)-7-methoxy-2,3-dihydro-1H-indene-1-carboxamide]
Emax [1]: ≥ 150%
EC50 [1]: 3 to 10 µM
Maximum % activity (with co-corrector) [2]: +++ (≥350)
EC50 [2]: < 3 µM

COc1ccc(Br)c2c1C(C(=O)NS(=O)(=O)c1cccc3ccccc13)C2 (centres unmarked) [Example I-79, 2-bromo-5-methoxy-N-(naphthalene-1-sulfonyl)bicyclo[4.2.0]octa-1,3,5-triene-7-carboxamide]
Emax [1]: ≥ 150%
EC50 [1]: 3 to 10 µM
Maximum % activity (with co-corrector) [2]: +++ (≥350)
EC50 [2]: < 3 µM

COc1ccc(C2CCC2)c2c1[C@@H](C(=O)NS(=O)(=O)c1cccc3ccccc13)CC2 [Example I-80, (1S)-4-cyclobutyl-7-methoxy-N-(naphthalene-1-sulfonyl)-2,3-dihydro-1H-indene-1-carboxamide]
Emax [1]: 50 to 150%
EC50 [1]: 3 to 10 µM
Maximum % activity (with co-corrector) [2]: +++ (≥350)
EC50 [2]: 3 to 10 µM

COc1ccc(C2CCC2)c2c1[C@H](C(=O)NS(=O)(=O)c1cccc3ccccc13)CC2 [Example I-81, (1R)-4-cyclobutyl-7-methoxy-N-(naphthalene-1-sulfonyl)-2,3-dihydro-1H-indene-1-carboxamide]
Emax [1]: ≥ 150%
EC50 [1]: < 3 µM
Maximum % activity (with co-corrector) [2]: +++ (≥350)
EC50 [2]: < 3 µM

O=C(NS(=O)(=O)c1cccc2ccccc12)C1CCCc2cccc(C3CCC3)c21 (centres unmarked) [Example I-82, 8-cyclobutyl-N-(naphthalene-1-sulfonyl)-1,2,3,4-tetrahydronaphthalene-1-carboxamide]
Emax [1]: ≥ 150%
EC50 [1]: < 3 µM
Maximum % activity (with co-corrector) [2]: +++ (≥350)
EC50 [2]: < 3 µM

CC1(C(=O)NS(=O)(=O)c2cccc3ccccc23)CCc2cccc(C3CCC3)c21 (centres unmarked) [Example I-83, 7-cyclobutyl-1-methyl-N-(naphthalene-1-sulfonyl)-2,3-dihydro-1H-indene-1-carboxamide]
Emax [1]: ≥ 150%
EC50 [1]: < 3 µM
Maximum % activity (with co-corrector) [2]: +++ (≥350)
EC50 [2]: < 3 µM

COc1ccc(Br)c2c1CC[C@H]2C(=O)NS(=O)(=O)c1cccc2ccccc12 [Example I-84, (1R)-7-bromo-4-methoxy-N-(naphthalene-1-sulfonyl)-2,3-dihydro-1H-indene-1-carboxamide]
Emax [1]: ≥ 150%
EC50 [1]: 3 to 10 µM
Maximum % activity (with co-corrector) [2]: +++ (≥350)
EC50 [2]: < 3 µM

COc1ccc(Br)c2c1CC[C@@H]2C(=O)NS(=O)(=O)c1cccc2ccccc12 [Example I-85, (1S)-7-bromo-4-methoxy-N-(naphthalene-1-sulfonyl)-2,3-dihydro-1H-indene-1-carboxamide]
Emax [1]: 50 to 150%
EC50 [1]: 3 to 10 µM
Maximum % activity (with co-corrector) [2]: +++ (≥350)
EC50 [2]: 3 to 10 µM

COc1ccc(C2CC2)c2c1C(C(=O)NS(=O)(=O)c1cccc3ccccc13)CCC2 (centres unmarked) [Example I-88, 5-cyclopropyl-8-methoxy-N-(naphthalene-1-sulfonyl)-1,2,3,4-tetrahydronaphthalene-1-carboxamide]
Emax [1]: ≥ 150%
EC50 [1]: < 3 µM
Maximum % activity (with co-corrector) [2]: +++ (≥350)
EC50 [2]: < 3 µM

COc1ccc(OC)c2c1CC[C@@H]2C(=O)NS(=O)(=O)c1cccc2ccccc12 [Example I-89, (1S)-4,7-dimethoxy-N-(naphthalene-1-sulfonyl)-2,3-dihydro-1H-indene-1-carboxamide]
Emax [1]: 50 to 150%
EC50 [1]: 3 to 10 µM
Maximum % activity (with co-corrector) [2]: ++ (≥150 and <350)
EC50 [2]: 3 to 10 µM

COc1ccc(OC)c2c1CC[C@H]2C(=O)NS(=O)(=O)c1cccc2ccccc12 [Example I-90, (1R)-4,7-dimethoxy-N-(naphthalene-1-sulfonyl)-2,3-dihydro-1H-indene-1-carboxamide]
Emax [1]: ≥ 150%
EC50 [1]: 3 to 10 µM
Maximum % activity (with co-corrector) [2]: +++ (≥350)
EC50 [2]: 3 to 10 µM

COc1ccc(OC)c2c1CC[C@@H]2C(=O)NS(=O)(=O)c1cccc2ncccc12 [Example I-91, (1S)-4,7-dimethoxy-N-(quinoline-5-sulfonyl)-2,3-dihydro-1H-indene-1-carboxamide]
Emax [1]: 50 to 150%
EC50 [1]: 3 to 10 µM
Maximum % activity (with co-corrector) [2]: +++ (≥350)
EC50 [2]: 3 to 10 µM

COc1ccc(OC)c2c1CC[C@H]2C(=O)NS(=O)(=O)c1cccc2ncccc12 [Example I-92, (1R)-4,7-dimethoxy-N-(quinoline-5-sulfonyl)-2,3-dihydro-1H-indene-1-carboxamide]
Emax [1]: ≥ 150%
EC50 [1]: 3 to 10 µM
Maximum % activity (with co-corrector) [2]: +++ (≥350)
EC50 [2]: < 3 µM

COc1ccc(C(F)(F)F)c2c1[C@@H](C(=O)NS(=O)(=O)c1cccc3ccccc13)CC2 [Example I-93, (1S)-7-methoxy-N-(naphthalene-1-sulfonyl)-4-(trifluoromethyl)-2,3-dihydro-1H-indene-1-carboxamide]
Emax [1]: ≥ 150%
EC50 [1]: 3 to 10 µM
Maximum % activity (with co-corrector) [2]: +++ (≥350)
EC50 [2]: 3 to 10 µM

COc1ccc(C(F)(F)F)c2c1[C@H](C(=O)NS(=O)(=O)c1cccc3ccccc13)CC2 [Example I-94, (1R)-7-methoxy-N-(naphthalene-1-sulfonyl)-4-(trifluoromethyl)-2,3-dihydro-1H-indene-1-carboxamide]
Emax [1]: ≥ 150%
EC50 [1]: < 3 µM
Maximum % activity (with co-corrector) [2]: +++ (≥350)
EC50 [2]: < 3 µM

COc1ccc(C(F)(F)F)c2c1[C@@H](C(=O)NS(=O)(=O)c1cccc3ncccc13)CC2 [Example I-95, (1S)-7-methoxy-N-(quinoline-5-sulfonyl)-4-(trifluoromethyl)-2,3-dihydro-1H-indene-1-carboxamide]
Emax [1]: ≥ 150%
EC50 [1]: 3 to 10 µM
Maximum % activity (with co-corrector) [2]: +++ (≥350)
EC50 [2]: < 3 µM

COc1ccc(C(F)(F)F)c2c1[C@H](C(=O)NS(=O)(=O)c1cccc3ncccc13)CC2 [Example I-96, (1R)-7-methoxy-N-(quinoline-5-sulfonyl)-4-(trifluoromethyl)-2,3-dihydro-1H-indene-1-carboxamide]
Emax [1]: ≥ 150%
EC50 [1]: < 3 µM
Maximum % activity (with co-corrector) [2]: +++ (≥350)
EC50 [2]: < 3 µM

CCC1(C(=O)NS(=O)(=O)c2cccc3cnn(C)c23)CCc2c(Cl)cccc21 (centres unmarked) [Example I-97, 4-chloro-1-ethyl-N-(1-methyl-1H-indazole-7-sulfonyl)-2,3-dihydro-1H-indene-1-carboxamide]
Emax [1]: ≥ 150%
EC50 [1]: < 3 µM
Maximum % activity (with co-corrector) [2]: +++ (≥350)
EC50 [2]: < 3 µM

COc1ccc(Br)c2c1C(C(=O)NS(=O)(=O)c1cccc3cnn(C)c13)CC2 (centres unmarked) [Example I-98, 4-bromo-7-methoxy-N-(1-methyl-1H-indazole-7-sulfonyl)-2,3-dihydro-1H-indene-1-carboxamide]
Emax [1]: ≥ 150%
EC50 [1]: < 3 µM
Maximum % activity (with co-corrector) [2]: +++ (≥350)
EC50 [2]: < 3 µM

COc1ccc(C2CCC2)c2c1C(C(=O)NS(=O)(=O)c1cccc3cnn(C)c13)CC2 (centres unmarked) [Example I-99, 4-cyclobutyl-7-methoxy-N-(1-methyl-1H-indazole-7-sulfonyl)-2,3-dihydro-1H-indene-1-carboxamide]
Emax [1]: ≥ 150%
EC50 [1]: 3 to 10 µM
Maximum % activity (with co-corrector) [2]: +++ (≥350)
EC50 [2]: < 3 µM
